Laboratory results as given in patent US9689040B2, “Selective inhibitors of tumor-initiating cells” (Children's Medical Center Corporation, priority 2011, dated 2017).

Legend:
[1] = tested on: epithelial TNBC / basal-like cells (MB-468, HCC-1143, HCC-1937, 4T1-E); experiment: cells; conditions: 24 h, read-out: decrease of cell viability
[2] = tested on: unselected breast cancer patients; conditions: eight phase I/II studies, chemotherapy combination regimens with bortezomib; cited from earlier work
Noxa, PARP1 = experiment: Immunoblot of Noxa induction and PARP cleavage in breast cell lines; assay type: cell-based, human; conditions: for Noxa protein induction: 12.5 nM, 24 hours
Method: Immunoblot was performed as described^41. Primary antibodies were as follows: cleaved Caspase 3 (Cell Signaling, rabbit polyclonal, 1:1000), PARP1 (Santa Cruz, rabbit polyclonal, 1:500), MCL1 (Cell Signaling, Rabbit polyclonal, 1:1000), Bim (Santa Cruz, rabbit polyclonal, 1:500), Bik (Cell Signaling, rabbit polyclonal, 1:1000), Puma (Cell Signaling, rabbit polyclonal, 1:1000), Noxa (Calbiochem, mouse monoclonal, 1:500), Bid (Santa Cruz, rabbit polyclonal, 1:500), Bad (Santa Cruz, rabbit polyclonal, 1:500). Antibodies were diluted in 5% milk in TBS-T and incubated O.N. at 4° C. Secondary mouse and rabbit HRP-conjugated antibodies were from Amersham. Protein signal was detected using the ECL Plus kit (Amersham). For flow cytometry, cells were stained as previously described^33, using the following fluorescent-conjugated antibodies: CD44 (BD Biosciences), CD24 (BD Biosciences), CD326 (ESA, Biolegend), Annexin V (Invitrogen). For immunofluorescence microscopy, cells were fixed in 2% PFA for 10 min, permeabilized with 1% Triton X in PBS for 5 min, and incubated with primary antibodies in 0.5% Triton X, 1% FBS in PBS for 30 min at RT. Antibodies were: CK18 (Santa Cruz, mouse monoclonal, 1:100) and CK14 (Millipore, mouse monoclonal, 1:100). After washing the cells were stained sequentially with AlexaFluor647-conjugated secondary antibody (Invitrogen, 1:200) and DAPI (Sigma, 1:5000). For immunohistochemistry, BPLER tumor sections were prepared from paraffin-embedded tissues, deparaffinized and treated with 10% citrate buffer for 15 min.

[3] = tested on: mesenchymal MDA-MB-231 and MDA-MB-436 cells; conditions: MB-231, MB-436
proteasome = proteasome (Homo sapiens, UniProt P28074); experiment: Proteasome activity in BPLER tumors after treatment (ProteasomeGlo assay); assay type: in vivo, mouse; conditions: after 18 hours
Method: (§1) (6A) Proteasome activity in protein lysates from BPLER tumors 18 hours after intratumoral (i.t.), intraperithoneal (i.p) or intravenous (i.v.) treatment with bortezomib at the indicated dose, as determined by ProteasomeGlo assay. Proteasome activity in BPLER treated with bortezomib in vitro is shown as control. (6B-6E) Mean tumor volume (6B, 6D) in BPLER tumor-bearing mice after treatment with bortezomib or DMSO at the indicated dose, schedule and route of administration. Median tumor weight was measured at time of sacrifice (6C, 6E). […] (6F) Immunoblot analysis of protein lysates from BPLER tumors 18 hours after 1 intravenous dose of bortezomib at 1.6 mg/kg bortezomib or DMSO, showing efficient Noxa induction and caspase-3 and PARP1 cleavage after bortezomib treatment. (6G) Mean tumor volume in MB-468 tumor-bearing mice after intravenous treatment with 1.6 mg/kg bortezomib weekly. (6H) Schematic diagram illustrating generation of mouse TNBC primary tumor fragments for bortezomib-based therapy studies. […] 4T1-E tumors are shown as control. (6I, 6J) Mean V22 tumor volume (6I) after weekly intravenous infusion of bortezomib (1.6 mg/kg) or DMSO. Treatment was started 2 days after implantation of primary tumor fragments. […] The top and the bottom of each box represent the 75th and 25th percentile of tumor weight, respectively. Upper and lower whiskers represent maximum and minimum tumor weight, respectively. The black horizontal band in each box corresponds to median tumor weight.
Our data thus far indicate that highly malignant epithelial TNBC cells are selectively susceptible to proteasome inhibition. Bortezomib is already in the clinic for treatment of multiple myeloma and other lymphomas. […] To assess therapeutic efficacy, we administered bortezomib every 3 days (0.8 mg/kg i.t.) or weekly (1.6 mg/kg i.v.) after BPLER tumors, implanted in the flank of Nu/J mice, became palpable. BPLER tumor outgrowth was assessed by tumor volume during the treatment period and by tumor weight at the time of sacrifice. […]

[4] = tested on: mouse TNBC primary tumor fragments; experiment: Primary TNBC tumor fragments from TP53 heterozygous Balb/c mice implanted in mammary fat-pad (V22 tumors); assay type: in vivo; conditions: 1.6 mg/kg weekly i.v. infusion
Method: as §1, with “Upper and lower whiskers represent maximum and minimum tumor weight, respectively. The black horizontal band in each box corresponds to median tumor weight.” left out

Chain of proteasome (P28074 60-263): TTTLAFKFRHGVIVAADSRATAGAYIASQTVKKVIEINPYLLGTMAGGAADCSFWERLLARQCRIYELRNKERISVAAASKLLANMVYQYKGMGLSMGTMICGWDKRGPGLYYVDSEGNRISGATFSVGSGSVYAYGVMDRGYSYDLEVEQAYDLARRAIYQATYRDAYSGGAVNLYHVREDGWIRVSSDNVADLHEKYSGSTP

CC(C)C[C@H](NC(=O)[C@H](Cc1ccccc1)NC(=O)c1cnccn1)B(O)O [bortezomib]
cytotoxicity at 0.0125 µM [1]: 50 to 65%
partial response rates [2]: 10-20%
Noxa protein induction (Noxa, PARP1; BPE, MCF7 and T47D): only weakly
Noxa protein level (Noxa, PARP1; BPLER cells): highly increased
PARP cleavage (Noxa, PARP1; HCC1143 and HCC1937 cells): induced PARP cleavage
PARP cleavage (Noxa, PARP1; MCF7 or MDA-MB-436 cells): not in MCF7 or MDA-MB-436 cells
Noxa protein induction (Noxa, PARP1; all TNBC cell lines tested): strongly induced Noxa protein
sensitivity of mesenchymal breast cancer cell lines [3]: resistant
proteasome inhibition in the tumor (proteasome; 1.6 mg/kg i.v.): efficient proteasome activity inhibition
proteasome inhibition in the tumor (proteasome; 1 dose 0.8 mg/kg i.p. or i.v.): less effective
proteasome inhibition in the tumor (proteasome; 1 dose 0.8 mg/kg i.t.): Nearly complete proteasome inhibition
secondary tumors smaller compared to control mice [4]: ~90%
secondary tumors weighed less compared to control mice [4]: ~80%
